Measured values: patent US12240862B2, “Inhibitors of peptidylarginine deiminases” (Gilead Sciences, Inc., priority 2020, dated 2025)

Biological target: T1, human PAD4 (Homo sapiens, UniProt Q9UM07)
T1 construct: human PAD4 (NM_012387), A2P663, was PCR amplified; His-SUMO (N, cleaved yes); made in house; host or cells: E. coli BL21(DE3)
Experiment: In vitro PAD4 BAEE biochemical assay
Conditions: human PAD4, BAEE substrate; 5 nM PAD4, 2 mM calcium chloride, 3 mM BAEE; geometric mean of multiple experiments
Method in brief: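 Ammonia generated from BAEE serves as the readout, measured by o-phthalaldehyde after EDTA termination. Final conditions: 5 nM human PAD4 (SUMO tag cleaved), 2 mM CaCl2, 3 mM BAEE, pH 7.6 MOPS buffer, 25 °C for 2 h following a 30-min compound preincubation.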

T1 sequence (Q9UM07 2-663): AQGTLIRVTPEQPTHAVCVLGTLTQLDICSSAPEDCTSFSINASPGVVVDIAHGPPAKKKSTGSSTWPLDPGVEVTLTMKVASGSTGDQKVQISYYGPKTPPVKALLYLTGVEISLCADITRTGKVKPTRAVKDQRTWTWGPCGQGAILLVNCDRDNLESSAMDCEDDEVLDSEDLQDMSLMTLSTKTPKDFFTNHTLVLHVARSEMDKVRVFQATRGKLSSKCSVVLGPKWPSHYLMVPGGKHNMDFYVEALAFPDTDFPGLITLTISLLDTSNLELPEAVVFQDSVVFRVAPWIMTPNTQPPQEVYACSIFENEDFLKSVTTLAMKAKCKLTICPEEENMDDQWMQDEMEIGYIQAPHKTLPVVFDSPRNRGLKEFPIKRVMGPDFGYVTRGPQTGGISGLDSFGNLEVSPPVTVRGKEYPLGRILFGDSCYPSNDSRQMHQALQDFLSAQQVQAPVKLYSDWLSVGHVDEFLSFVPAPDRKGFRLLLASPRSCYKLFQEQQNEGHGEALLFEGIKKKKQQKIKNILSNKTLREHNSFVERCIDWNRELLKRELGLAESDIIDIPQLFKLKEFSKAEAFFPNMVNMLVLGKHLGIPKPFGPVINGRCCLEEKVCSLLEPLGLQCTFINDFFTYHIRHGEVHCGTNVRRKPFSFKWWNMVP

IC50 | SMILES
711 nM | COc1cc(C(=O)N2[C@@H]3C[C@@H](N)[C@H]2CC3C)cc2nc(-c3cc4ccc(N(C(F)F)S(C)(=O)=O)nc4n3CC3CC3)c(C)n12 (stereo partly drawn) [Example 352, N-[2-[7-[(1R,2R,4R)-2-amino-5-methyl-7-azabicyclo[2.2.1]heptane-7-carbonyl]-5-methoxy-3-methyl-imidazo[1,2-a]pyridin-2-yl]-1-(cyclopropylmethyl)pyrrolo [2,3-b]pyridin-6-yl]-N-(difluoromethyl) methanesulfonamide]
233 nM | COc1cc(C(=O)N2[C@@H]3CC[C@@H](N)[C@H]2CC3)cc2nc(-c3cc4ccc(N(C(F)F)S(C)(=O)=O)nc4n3CC3CC3)c(C)n12 [Example 410, ~{N}-[2-[7-[(1~{R},2~{R}, 5~{R})-2-amino-8-azabicyclo[3.2.1]octane-8-carbonyl]-5-methoxy-3-methylimidazo[1,2-a]pyridin-2-yl]-1-(cyclopropylmethyl)pyrrolo [2,3-b]pyridin-6-yl]-~{N}-(difluoromethyl) methanesulfonamide]
177 nM | COc1cc(C(=O)N2CC[C@@H](O)[C@@H](N)C2)cc2nc(-c3cc4ccc([C@@H](C)NC(=O)c5ccccc5)nc4n3CC3CC3)c(C)n12 [Example 115]
5250 nM | COc1cc(C(=O)N2[C@@H]3CC[C@H]2[C@@H](N)[C@@H](O)C3)cc2nc(-c3cc4ccc(N(C(F)F)S(C)(=O)=O)nc4n3CC3CC3)c(C)n12 [Example 414, ~{N}-[2-[7-[(1~{S}, 2~{R},3~{S},5~{R})-2-amino-3-hydroxy-8-azabicyclo[3.2.1]octane-8-carbonyl]-5-methoxy-3-methylimidazo [1,2-a]pyridin-2-yl]-1-(cyclopropylmethyl)pyrrolo [2,3-b]pyridin-6-yl]-~{N}-(difluoromethyl) methanesulfonamide]
230 nM | CCO[C@@H]1CCN(C(=O)c2cc(OC)n3c(C)c(-c4cc5ccc(N(C(F)F)S(C)(=O)=O)nc5n4CC4CC4)nc3c2)C[C@@H]1N [Example 340, ~{N}-[2-[7-[(3~{S}, 4~{R})-3-amino-4-ethoxypiperidine-1-carbonyl]-5-methoxy-3-methylimidazo [1,2-a]pyridin-2-yl]-1-(cyclopropylmethyl)pyrrolo [2,3-b]pyridin-6-yl]-~{N}-(difluoromethyl) methanesulfonamide]
33800 nM | COc1cc(C(=O)N2C[C@@H](N)[C@H](F)C2)cc2nc(-c3cc4ccc(N(C(F)F)S(C)(=O)=O)nc4n3CC3CC3)c(C)n12 [Example 280, ~{N}-[2-[7-[(3~{R}, 4~{R})-3-amino-4-fluoropyrrolidine-1-carbonyl]-5-methoxy-3-methylimidazo [1,2-a]pyridin-2-yl]-1-(cyclopropylmethyl)pyrrolo[2,3-b]pyridin-6-yl]-~{N}-(difluoromethyl) methanesulfonamide]
84.9 nM | COc1cc(C(=O)N2[C@H]3CC[C@@H]2[C@H](N)C3)cc2nc(-c3cc4ccc([C@@H](C)NC(=O)C56CCC(F)(CC5)CC6)nc4n3CC3CC3)c(C)n12 [Example 63, ~{N}-[(1~{R})-1-[2-[7-[(1~{R},2~{R}, 4~{S})-2-amino-7-azabicyclo[2.2.1]heptane-7-carbonyl]-5-methoxy-3-methylimidazo [1,2-a]pyridin-2-yl]-1-(cyclopropylmethyl)pyrrolo[2,3-b]pyridin-6-yl]ethyl]-4-fluorobicyclo[2.2.2] octane-1-carboxamide]
82.4 nM | COc1cc(C(=O)N2[C@H]3CC[C@@H]2[C@H](N)C3)cc2nc(-c3cc4ccc([C@@H](C)NC(=O)c5cccn(C)c5=O)nc4n3CC3CC3)c(C)n12 [Example 30, ~{N}-[(1~{R})-1-[2-[7-[(1~{R}, 2~{R},4~{S})-2-amino-7-azabicyclo [2.2.1]heptane-7-carbonyl]-5-methoxy-3-methylimidazo [1,2-a]pyridin-2-yl]-1-(cyclopropylmethyl)pyrrolo[2,3-b]pyridin-6-yl]ethyl]-1-methyl-2-oxopyridine-3-carboxamide]
10600 nM | CCc1c(-c2cc3ccc(N(C(F)F)S(C)(=O)=O)nc3n2CC2CC2)nc2cc(C(=O)N3CC[C@H](O)[C@H](N)C3)cc(OC)n12 [Example 404, ~{N}-[2-[7-[(3~{R},4~{S})-3-amino-4-hydroxypiperidine-1-carbonyl]-3-ethyl-5-methoxyimidazo[1,2-a]pyridin-2-yl]-1-(cyclopropylmethyl)pyrrolo [2,3-b]pyridin-6-yl]-~{N}-(difluoromethyl) methanesulfonamide]
64.3 nM | COc1cc(C(=O)N2[C@H]3CC[C@@H]2[C@H](N)C3)cc2nc(-c3cc4ccc(C(C)CC(=O)N5CCCC5)nc4n3CC3CC3)c(C)n12 (some centres unmarked) [Example 528, 3-[2-[7-[(1~{R},2~{R}, 4~{S})-2-amino-7-azabicyclo[2.2.1]heptane-7-carbonyl]-5-methoxy-3-methylimidazo[1,2-a]pyridin-2-yl]-1-(cyclopropylmethyl)pyrrolo [2,3-b]pyridin-6-yl]-1-pyrrolidin-1-ylbutan-1-one]
62.2 nM | COc1cc(C(=O)N2[C@H]3CC[C@@H]2[C@H](N)C3)cc2nc(-c3cc4ccc([C@@H](C)NC(=O)N5C[C@@H](F)[C@@H](F)C5)nc4n3CC3CC3)c(C)n12 [Example 245, (3~{R},4~{S})-~{N}-[(1~{R})-1-[2-[7-[(1~{R},2~{R},4~{S})-2-amino-7-azabicyclo [2.2.1]heptane-7-carbonyl]-5-methoxy-3-methylimidazo [1,2-a]pyridin-2-yl]-1-(cyclopropylmethyl)pyrrolo [2,3-b]pyridin-6-yl]ethyl]-3,4-difluoropyrrolidine-1-carboxamide]
8050 nM | COc1cc(C(=O)N[C@@H]2CC[C@@H]3CC[C@H]2N3)cc2nc(-c3cc4ccc(N(C(F)F)S(C)(=O)=O)nc4n3CC3CC3)c(C)n12 [Example 299, ~{N}-[(1~{R},2~{R}, 5~{S})-8-azabicyclo [3.2.1]octan-2-yl]-2-[1-(cyclopropylmethyl)-6-[difluoromethyl (methylsulfonyl)amino]pyrrolo[2,3-b]pyridin-2-yl]-5-methoxy-3-methylimidazo[1,2-a]pyridine-7-carboxamide]
98.1 nM | COc1cc(C(=O)N2CCC[C@@H](N)C2)cc2nc(-c3cc4ccc([C@@H](C)NC(=O)N5CCCC5)nc4n3CC3CC3)c(C)n12 [Example 252, ~{N}-[(1~{R})-1-[2-[7-[(3~{R})-3-aminopiperidine-1-carbonyl]-5-methoxy-3-methylimidazo [1,2-a]pyridin-2-yl]-1-(cyclopropylmethyl)pyrrolo [2,3-b]pyridin-6-yl]ethyl] pyrrolidine-1-carboxamide]
666 nM | COc1cc(C(=O)N2CCC[C@@H](N)C2)cc2nc(-c3cc4ccc(-c5ccnc6c5CC(=O)N6)nc4n3CC3CC3)c(C)n12 [Example 600, 4-[2-[7-[(3~{R})-3-aminopiperidine-1-carbonyl]-5-methoxy-3-methylimidazo[1,2-a]pyridin-2-yl]-1-(cyclopropylmethyl)pyrrolo[2,3-b]pyridin-6-yl]-1,3-dihydropyrrolo[2,3-b] pyridin-2-one]
204 nM | COc1cc(C(=O)N2[C@@H]3CC[C@@H](N)[C@H]2CC3)cc2nc(-c3cc4ccc(N(C(F)F)S(C)(=O)=O)nc4n3CC3CC3)c(C3CC3)n12 [Example 382, ~{N}-[2-[7-[(1~{R},2~{R}, 5~{R})-2-amino-8-azabicyclo[3.2.1]octane-8-carbonyl]-3-cyclopropyl-5-methoxyimidazo[1,2-a]pyridin-2-yl]-1-(cyclopropylmethyl)pyrrolo [2,3-b]pyridin-6-yl]-~{N}-(difluoromethyl) methanesulfonamide]
96.5 nM | CCOC(=O)CC(C)c1ccc2cc(-c3nc4cc(C(=O)N5[C@H]6CC[C@@H]5[C@H](N)C6)cc(OC)n4c3C)n(CC3CC3)c2n1 (some centres unmarked) [Example 559, ethyl 3-[2-[7-[(1~{R}, 2~{R},4~{S})-2-amino-7-azabicyclo[2.2.1]heptane-7-carbonyl]-5-methoxy-3-methylimidazo[1,2-a]pyridin-2-yl]-1-(cyclopropylmethyl)pyrrolo[2,3-b]pyridin-6-yl]butanoate]
34.5 nM | COc1cc(C(=O)N2[C@H]3CC[C@@H]2[C@H](N)C3)cc2nc(-c3cc4ccc([C@@H](C)NC(=O)c5ccncc5)nc4n3CC3CC3)c(C)n12 [Example 119, ~{N}-[(1~{R})-1-[2-[7-[(1~{R},2~{R},4~{S})-2-amino-7-azabicyclo[2.2.1]heptane-7-carbonyl]-5-methoxy-3-methylimidazo [1,2-a]pyridin-2-yl]-1-(cyclopropylmethyl)pyrrolo [2,3-b]pyridin-6-yl]ethyl] pyridine-4-carboxamide]
5310 nM | COc1cc(C(=O)N2CC3(CNC3)C2)cc2nc(-c3cc4ccc(N(C(F)F)S(C)(=O)=O)nc4n3CC3CC3)c(C)n12 [Example 367, ~{N}-[1-(cyclopropylmethyl)-2-[7-(2,6-diazaspiro[3.3]heptane-2-carbonyl)-5-methoxy-3-methylimidazo[1,2-a]pyridin-2-yl]pyrrolo[2,3-b]pyridin-6-yl]-~{N}-(difluoromethyl) methanesulfonamide]
17100 nM | CCC1CC2CN(C(=O)c3cc(OC)n4c(C)c(-c5cc6ccc(N(C(F)F)S(C)(=O)=O)nc6n5CC5CC5)nc4c3)C1C2N (centres unmarked) [Example 370]
32.4 nM | COc1cc(C(=O)N2[C@H]3CC[C@@H]2[C@H](N)C3)cc2nc(-c3cc4ccc([C@@H](C)NC(=O)N5CCC(C(C)(C)O)C5)nc4n3CC3CC3)c(C)n12 (some centres unmarked) [Example 203, ~{N}-[(1~{R})-1-[2-[7-[(1~{R},2~{R},4~{S})-2-amino-7-azabicyclo[2.2.1]heptane-7-carbonyl]-5-methoxy-3-methylimidazo [1,2-a]pyridin-2-yl]-1-(cyclopropylmethyl)pyrrolo [2,3-b]pyridin-6-yl]ethyl]-3-(2-hydroxypropan-2-yl) pyrrolidine-1-carboxamide]
